According to US20220251610A1, “Prehydrolysate Fermentability in Biomass Pretreatment” (University of Cincinnati, priority 2021, published 2022):

How the values were obtained:
Saccharomyces cerevisiae = test: Yeast fermentation of prehydrolysates from dilute acid pretreatment of aspen with nucleophilic additives; type: cell-based; conditions: for time at which glucose was completely consumed: 4% (w/w of dry biomass) additive in dilute acid pretreatment, glucose about 20 g/L; for final ethanol concentration / glucose consumption rate / volumetric ethanol productivity: 4% additive in pretreatment; for final ethanol concentration: 48 h fermentation; for glucose consumption rate / volumetric ethanol productivity: first 6 h of fermentation
Experimental: This analysis was carried out according to the NREL protocol. All pretreatment experiments were carried out in a Parr batch pressure vessel (model of 4520 of 2.0 L of capacity) (Parr Instrument Co., Moline, Ill.). […] All the pretreatment processes were conducted at 170° C. in 60 min. After pretreatment, the stirred reactor was quenched in a bucket with cold water. The slurry after pretreatment was separated into solid fraction and liquid fraction by vacuum filtration. The liquid fraction (prehydrolysates) was stored at 4° C. and used for subsequent analyses and fermentation. The pretreated substrates were washed with 560 mL warm water at least three times and collected by vacuum filtration. Fleischmann's pure dry yeast, Saccharomyces cerevisiae was stored at 4° C. and used for the ethanol fermentation. […] The concentration of yeast suspensions was determined by UV-spectrophotometer at 600 nm. […] Batch fermentation was taking place in a 250 mL flask with 50 mL prehydrolysates without any extra nutrients. […] Moreover, excessive CaCO3 was added to adjust the pH of prehydrolysates to 6. Then, the solution was filtered to remove CaCO3 and other impurities through the membrane filter (0.22 μm). All fermentation experiments were incubated at 30° C. and 150 rpm for 48 h in an incubator shaker (E24, New Brunswick Scientific). […] Fermentation was conducted in duplicate. The volumetric ethanol productivity (QEtOH) was calculated based on the produced ethanol in the first 6 h of fermentation as described previously. […] The sugar concentrations were detected by an Agilent 1260 HPLC system equipped with a Bio-Rad HPX-87P column (300×7.8 mm) connected to a refractive index detector (RID-10A). […] The column temperature and detector temperature were kept at 80, and 45° C., respectively. […] To examine whether adding nucleophilic additives in pretreatment can enhance prehydrolysate fermentability, cysteine, histidine, soy protein isolate (SPI) and bovine serum albumin (BSA) were added in the dilute acid pretreatment of aspen.

[1] = Xylan 1.67 g/L; cited from earlier work

| Molecule | time at which glucose was completely consumed (Saccharomyces cerevisiae) | final ethanol concentration (Saccharomyces cerevisiae) | glucose consumption rate (Saccharomyces cerevisiae) | volumetric ethanol productivity (Saccharomyces cerevisiae) | reduction of the initial hydrolysis rate of Avicel [1] |
| --- | --- | --- | --- | --- | --- |
| N[C@@H](CS)C(=O)O [cysteine] | 24 h | 8.87 g/L | 1.35 g/L/h | 0.51 g/L/h | – |
| N[C@@H](Cc1c[nH]cn1)C(=O)O [histidine] | 6 h | 8.69 g/L | 3.22 g/L/h | 1.44 g/L/h | – |
| Xylan | – | – | – | – | 34.5% |
